Source: article PMC9604064, “Comparative Assessment of the Inhibitory Potential of the Herbicide Glyphosate and Its Structural Analogs on RGD-Specific Integrins Using Enzyme-Linked Immunosorbent Assays” (International Journal of Molecular Sciences, 2022)
Entries after “also recorded” stand apart in the source; their conditions may differ. Read-outs that look alike come from different tables or passages of the source.

Key:
[1] = cited from earlier work
[2] = parameters: method as in earlier work; conditions: not marked *; octanol/water; cited from earlier work
[3] = biological target: T1, integrin αllbβ3 (Homo sapiens, UniProt P05106+P08514); assay: biochemical; assay type: binding
T1 construct: purchased Enzyme Research Laboratories Ltd. (Swansea, UK)

[4] = biological target: T2, integrin αVβ3 (Homo sapiens, UniProt P05106+P06756); assay: biochemical; assay type: binding; conditions: for inhibition: at 22 mM (highest concentration), read-out: Maximal Inhibition Achieved (converted)
T2 construct: purchased R&D Systems Inc. (Minneapolis, MN, USA)

[5] = biological target: T3, integrin α5β1 (Homo sapiens, UniProt P05556+P08648); assay: biochemical; assay type: binding; conditions: for inhibition: at 22 mM (highest concentration), read-out: Maximal Inhibition Achieved (converted)
T3 construct: purchased R&D Systems Inc. (Minneapolis, MN, USA)

[6] = biological target: T2, integrin αVβ3; assay: biochemical; assay type: binding; conditions: for inhibition: read-out: Maximal Inhibition Achieved (converted)
[7] = biological target: T2, integrin αVβ3; assay type: binding; conditions: immobilized SARS-CoV-2 S-protein; maximal inhibition, range up to 22 mM
[8] = tested on: MC3T3-E1 cells; conditions: biosensoric measurement, concentration-dependent, via blocking RGD-specific integrins; cited from earlier work
[9] = biological target: T2, integrin αVβ3; conditions: at 11 mM; previously developed assay; cited from earlier work
[10] = integrin αllbβ3, immobilized fibrinogen, ligand range 0.1-22 mM
[11] = integrin αVβ3, immobilized vitronectin
[12] = integrin αVβ3, immobilized vitronectin, ligand range 0.1-22 mM
[13] = integrin α5β1, immobilized RGD polymer
[14] = integrin α5β1, immobilized RGD polymer, ligand range 0.1-22 mM
[15] = integrin αVβ3, immobilized RGD polymer, ligand range 0.1-22 mM
[16] = integrin αllbβ3, immobilized fibrinogen, at 22 mM, activation = higher absorbance than negative control, n. d. = not detected
[17] = integrin αVβ3, immobilized RGD polymer, at 22 mM (highest concentration)

T2 sequence (P06756 31-992): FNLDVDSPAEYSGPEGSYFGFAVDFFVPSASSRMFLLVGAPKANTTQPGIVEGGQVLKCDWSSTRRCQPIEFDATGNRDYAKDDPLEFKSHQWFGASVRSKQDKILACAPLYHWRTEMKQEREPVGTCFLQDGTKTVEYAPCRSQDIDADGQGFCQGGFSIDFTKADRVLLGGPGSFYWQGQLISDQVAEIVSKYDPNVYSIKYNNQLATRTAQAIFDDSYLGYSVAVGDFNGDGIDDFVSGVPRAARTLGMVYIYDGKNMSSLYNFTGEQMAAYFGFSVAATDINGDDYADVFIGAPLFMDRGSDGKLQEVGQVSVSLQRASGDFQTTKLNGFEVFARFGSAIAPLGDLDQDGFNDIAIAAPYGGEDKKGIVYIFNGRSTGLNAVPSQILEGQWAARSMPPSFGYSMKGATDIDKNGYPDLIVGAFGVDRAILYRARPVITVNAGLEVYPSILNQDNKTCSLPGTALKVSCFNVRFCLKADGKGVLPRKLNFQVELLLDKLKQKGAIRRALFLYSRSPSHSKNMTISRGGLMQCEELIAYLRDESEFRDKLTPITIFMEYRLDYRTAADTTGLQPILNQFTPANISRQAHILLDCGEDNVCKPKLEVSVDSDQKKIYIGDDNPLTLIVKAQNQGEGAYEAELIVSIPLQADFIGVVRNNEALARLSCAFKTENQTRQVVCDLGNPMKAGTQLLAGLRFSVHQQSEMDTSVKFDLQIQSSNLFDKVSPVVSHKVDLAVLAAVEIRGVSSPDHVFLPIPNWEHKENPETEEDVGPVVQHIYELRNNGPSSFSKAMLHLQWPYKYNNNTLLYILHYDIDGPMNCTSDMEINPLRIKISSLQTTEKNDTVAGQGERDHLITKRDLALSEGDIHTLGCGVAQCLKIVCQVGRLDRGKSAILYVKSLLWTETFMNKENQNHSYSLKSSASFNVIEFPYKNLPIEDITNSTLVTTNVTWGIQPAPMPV
T2 sequence (P05106 27-718): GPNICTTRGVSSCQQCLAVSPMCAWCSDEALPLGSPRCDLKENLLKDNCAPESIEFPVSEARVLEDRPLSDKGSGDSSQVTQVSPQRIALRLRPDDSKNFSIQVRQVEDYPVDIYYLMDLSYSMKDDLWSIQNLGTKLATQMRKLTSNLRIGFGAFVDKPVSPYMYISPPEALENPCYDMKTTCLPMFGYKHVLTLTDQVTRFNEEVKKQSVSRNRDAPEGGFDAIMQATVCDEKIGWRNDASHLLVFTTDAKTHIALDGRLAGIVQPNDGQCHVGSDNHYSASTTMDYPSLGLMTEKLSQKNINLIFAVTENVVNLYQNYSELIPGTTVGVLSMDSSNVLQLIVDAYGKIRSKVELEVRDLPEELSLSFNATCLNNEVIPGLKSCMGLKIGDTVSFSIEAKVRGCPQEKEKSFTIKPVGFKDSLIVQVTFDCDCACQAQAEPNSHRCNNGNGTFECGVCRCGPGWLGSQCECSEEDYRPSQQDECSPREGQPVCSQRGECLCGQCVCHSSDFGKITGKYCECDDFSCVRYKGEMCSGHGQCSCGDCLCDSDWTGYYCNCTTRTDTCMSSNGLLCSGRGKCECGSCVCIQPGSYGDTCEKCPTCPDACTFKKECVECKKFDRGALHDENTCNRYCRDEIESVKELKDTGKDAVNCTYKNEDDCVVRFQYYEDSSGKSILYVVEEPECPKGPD
T1 sequence (P08514 32-887 limits assumed): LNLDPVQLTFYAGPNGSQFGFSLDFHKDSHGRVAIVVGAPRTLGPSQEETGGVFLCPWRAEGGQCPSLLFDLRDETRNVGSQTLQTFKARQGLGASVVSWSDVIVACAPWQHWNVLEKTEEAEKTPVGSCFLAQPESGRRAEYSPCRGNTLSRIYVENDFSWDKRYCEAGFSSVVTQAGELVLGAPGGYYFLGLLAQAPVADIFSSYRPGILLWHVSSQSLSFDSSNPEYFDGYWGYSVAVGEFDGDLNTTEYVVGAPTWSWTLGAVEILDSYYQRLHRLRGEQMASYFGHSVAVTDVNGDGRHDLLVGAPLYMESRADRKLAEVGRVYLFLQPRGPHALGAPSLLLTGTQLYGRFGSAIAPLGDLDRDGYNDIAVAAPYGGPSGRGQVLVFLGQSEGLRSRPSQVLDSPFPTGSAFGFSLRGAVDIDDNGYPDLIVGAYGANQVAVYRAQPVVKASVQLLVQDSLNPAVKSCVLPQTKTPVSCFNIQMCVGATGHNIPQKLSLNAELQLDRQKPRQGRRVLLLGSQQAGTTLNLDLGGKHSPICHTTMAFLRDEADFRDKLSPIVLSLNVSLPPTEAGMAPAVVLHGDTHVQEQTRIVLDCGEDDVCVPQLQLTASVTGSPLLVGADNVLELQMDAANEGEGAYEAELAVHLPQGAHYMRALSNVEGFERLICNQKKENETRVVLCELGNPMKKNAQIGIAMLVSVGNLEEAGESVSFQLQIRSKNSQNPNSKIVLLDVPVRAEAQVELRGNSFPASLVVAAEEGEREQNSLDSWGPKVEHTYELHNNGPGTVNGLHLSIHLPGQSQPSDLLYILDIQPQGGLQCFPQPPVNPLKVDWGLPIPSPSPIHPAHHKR
T1 sequence (P08514 891-1039 partner limits assumed): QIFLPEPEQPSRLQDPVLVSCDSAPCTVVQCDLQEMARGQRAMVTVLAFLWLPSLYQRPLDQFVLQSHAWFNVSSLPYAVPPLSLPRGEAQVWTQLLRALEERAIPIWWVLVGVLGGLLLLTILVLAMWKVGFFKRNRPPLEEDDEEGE
T1 sequence (P05106 27-788): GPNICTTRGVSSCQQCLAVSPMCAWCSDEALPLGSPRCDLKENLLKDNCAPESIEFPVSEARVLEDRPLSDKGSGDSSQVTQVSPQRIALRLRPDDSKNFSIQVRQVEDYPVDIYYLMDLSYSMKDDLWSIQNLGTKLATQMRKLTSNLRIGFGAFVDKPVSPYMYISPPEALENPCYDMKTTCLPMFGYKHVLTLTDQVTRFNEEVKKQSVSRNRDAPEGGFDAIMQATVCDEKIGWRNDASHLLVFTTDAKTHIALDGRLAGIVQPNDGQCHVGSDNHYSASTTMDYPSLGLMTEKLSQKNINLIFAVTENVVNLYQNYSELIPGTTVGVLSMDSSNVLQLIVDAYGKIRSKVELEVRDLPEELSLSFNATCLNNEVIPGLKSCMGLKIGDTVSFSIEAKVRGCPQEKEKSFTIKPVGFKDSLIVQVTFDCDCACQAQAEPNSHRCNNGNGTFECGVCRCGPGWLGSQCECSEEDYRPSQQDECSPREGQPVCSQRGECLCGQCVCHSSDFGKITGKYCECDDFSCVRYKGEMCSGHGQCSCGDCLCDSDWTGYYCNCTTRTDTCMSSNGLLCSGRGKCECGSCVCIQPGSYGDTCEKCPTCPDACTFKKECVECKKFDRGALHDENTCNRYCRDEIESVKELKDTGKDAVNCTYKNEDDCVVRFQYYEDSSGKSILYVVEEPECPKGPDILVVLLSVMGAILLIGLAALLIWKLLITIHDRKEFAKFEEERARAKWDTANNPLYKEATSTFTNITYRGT

Row | Compound | IC50 [3, 10] | inhibition [4, 11] | IC50 [4, 12] | inhibition [5, 13] | IC50 [5, 14] | IC50 [6, 15] | inhibition [6, 17] | other results
1 | Glyphosate isopropylammonium salt |  |  |  |  |  |  |  | Water Solubility ([1]; temperature or pH not given): 1050 g/L; Clog Po/w [2]: −4.16
2 | CC(=O)N(CC(=O)O)CP(=O)(O)O [N-acetylglyphosate] | > 22 mM | 47.5% | > 22 mM | 15% | > 22 mM | > 22 mM |  | Water Solubility ([1]; temperature or pH not given): slight; inhibition at 22000 µM ([6]; integrin αVβ3, immobilized RGD polymer, at 22 mM (highest concentration), read-out: Maximal Inhibition Achieved): 40.6%
3 | CC(=O)NCC(=O)O [Acetylglycine] | > 22 mM | 58.5% | 9.2 ± 1 mM | 98.9% | 5.8 ± 0.9 mM | > 22 mM | 46.8% | Maximal Inhibition Achieved [3, 16]: activation; Maximal Inhibition Achieved ([3]; integrin αllbβ3, immobilized fibrinogen, at 22 mM, activation = higher absorbance than negative control, n. d. = not detected, listed as acetylglycine): high activation
4 | O=C(O)CNCC(=O)O [Iminodiacetic acid] | > 22 mM | 52.4% | 11.5 ± 1.5 mM | 8% | > 22 mM | > 22 mM | 24.6% | Water Solubility ([1]; 5 °C): 24.3 (5 °C) g/L
5 | O=C(O)CNCP(=O)(O)O [Glyphosate, N-(phosphonomethyl)glycine] | > 22 mM | 44.8% | > 22 mM | 85.7% | 9.7 ± 3.2 mM | 2.7 ± 0.5 mM | 100% | inhibition ([3]; integrin αllbβ3, immobilized fibrinogen, at 22 mM, activation = higher absorbance than negative control, n. d. = not detected, read-out: Maximal Inhibition Achieved): 40.2%; Inhibition of binding of αVβ3 to S-protein [7]: 35.6 ± 4.4%; Water Solubility ([1]; pH 7.0): 157 g/L; Adhesion of MC3T3-E1 cells to RGD motif [8]: significantly reduced; Inhibition of RGD-binding capability of αVβ3 integrin [9]: 96.3 ± 3.2%
6 | NCC(=O)O [Glycine] |  |  |  |  |  |  |  | IC50 [3]: > 22 mM; IC50 [4]: > 22 mM; IC50 [5]: > 22 mM; Maximal Inhibition Achieved [5]: >22 (22.1 ± 3.3%); IC50 [6]: > 22 mM
7 | NCP(=O)(O)O [Aminomethylphosphonic acid (AMPA), aminomethylphosphonic acid] | > 22 mM | 75.3% | 1.5 ± 0.4 mM | 44.8% | > 22 mM | 1.3 ± 0.2 mM | 95.9% | Maximal Inhibition Achieved [3, 16]: activation; Maximal Inhibition Achieved ([3]; integrin αllbβ3, immobilized fibrinogen, at 22 mM, activation = higher absorbance than negative control, n. d. = not detected, listed as AMPA): activation; also recorded: activated; Water Solubility ([1]; 20 °C): 56 (20 °C) g/L
8 | CNCC(=O)O [Sarcosine] | > 22 mM | 37.9% | > 22 mM | 13.4% | > 22 mM | > 22 mM | 35% | Water Solubility ([1]; 20 °C): 89.1 (20 °C) g/L; Clog Po/w [2]: −3.2
